Test results taken from paper PMC7215373, “Design, Synthesis, and Anticancer Evaluation of Novel Indole Derivatives of Ursolic Acid as Potential Topoisomerase II Inhibitors” (International Journal of Molecular Sciences, 2020).
Read-outs that look alike come from different tables or passages of the source.

Experiments:
[1] = system: HepG2 cells; experiment: MTT cytotoxicity assay, HepG2; format: cell-based, human; settings: 48 h exposure
Description: (§1) The in vitro cytotoxic activities of synthesized compounds were evaluated against two human hepatocarcinoma cell lines (SMMC-7721 and HepG2) and the human normal hepatocyte cell line (LO2) via MTT assay. All tested compounds were dissolved in DMSO and the stock solutions were diluted by DMEM medium before treatment of the cultured cells. […] Cell lines were obtained from American Tissue Culture Collection (ATCC). Briefly, different tumor cells were grown in DMEM medium supplemented with 10% fetal bovine serum, penicillin (100 U/mL), and streptomycin (50 μg/mL). Cells were harvested at log phase of growth and seeded in 96-well plates (100 μL/well at a density of 2 × 10^5 cells/mL). After 24 h incubation at 37 °C and 5% CO2 to allow cell attachment, cultures were exposed to various concentrations of the isolated compounds for 48 h. Finally, MTT solution (2.5 mg/mL in PBS) was added (40 μL/well). Plates were further incubated for 4 h at 37 °C, and the formazan crystals formed were dissolved by adding 150 μL/well of DMSO. Absorption at 570 nm was measured with an ELISA plate reader. […] Doxorubicin, camptothecin, and etoposide (VP-16) were co-assayed as positive controls.

[2] = biological target: T1, Human Topoisomerase IIα (Homo sapiens, UniProt P11388); experiment: Topoisomerase II relaxation assay (supercoiled pBR322); format: biochemical; settings: for inhibition at 20 µM: 20 μM compound, read-out: Topo II Inhibition (%) 20 μM; for inhibition at 100 µM: 100 μM compound, read-out: Topo II Inhibition (%) 100 μM
T1 construct: purchased USB, Affymetrix, Waltham, MA, USA
Description: The effect of the tested compounds on Topo I and II activities were evaluated by Topo I/II relaxation assays. The reaction products, relaxed DNA could be distinguished from supercoiled DNA by gel electrophoresis and visualized using gel imaging system. Human Topoisomerase IIα activity was detected by measuring the relaxation of supercoiled pBR322 plasmid DNA [22]. […] For inhibition studies, the compounds were pre-incubated with human Topo IIα and DNA for 15 min. Compounds were used at the appropriate concentrations by dissolving in 2% (v/v) DMSO. DMSO didn't show detrimental effect on the enzyme activity at concentration up to 2% (v/v). Reaction mixture was incubated at 37 °C for 30 min and stopped by the addition of 7 mM EDTA. Reaction product was mixed with DNA loading dye and electrophoresed on 1% TAE-Agarose. The gel was stained with ethidium bromide (0.5 μg/mL) for 30 min, destained twice in 1× TAE buffer, and then visualized using a BIO-RAD Gel Doc XR+ System. Etoposide (VP-16) was co-assayed as a positive control.

[3] = system: LO2 cells; experiment: MTT cytotoxicity assay, normal hepatocyte LO2; format: cell-based; settings: Homo sapiens, L02, 48 h exposure, normal hepatocyte cell line
Description: as §1

[4] = system: SMMC-7721 cells; experiment: MTT cytotoxicity assay, SMMC-7721; format: cell-based, human; settings: 48 h exposure
Description: as §1

[5] = biological target: T2, DNA topoisomerase I (Bos taurus, UniProt F1MN93); experiment: Topoisomerase I relaxation assay (supercoiled pBR322); format: biochemical; settings: for inhibition at 100 µM: 100 μM compound, read-out: Topo I Inhibition (%) 100 μM; for inhibition at 20 µM: 20 μM compound, read-out: Topo I Inhibition (%) 20 μM
T2 construct: purchased TaKaRa, Kyoto, Japan
T2 sequence (F1MN93 1-767): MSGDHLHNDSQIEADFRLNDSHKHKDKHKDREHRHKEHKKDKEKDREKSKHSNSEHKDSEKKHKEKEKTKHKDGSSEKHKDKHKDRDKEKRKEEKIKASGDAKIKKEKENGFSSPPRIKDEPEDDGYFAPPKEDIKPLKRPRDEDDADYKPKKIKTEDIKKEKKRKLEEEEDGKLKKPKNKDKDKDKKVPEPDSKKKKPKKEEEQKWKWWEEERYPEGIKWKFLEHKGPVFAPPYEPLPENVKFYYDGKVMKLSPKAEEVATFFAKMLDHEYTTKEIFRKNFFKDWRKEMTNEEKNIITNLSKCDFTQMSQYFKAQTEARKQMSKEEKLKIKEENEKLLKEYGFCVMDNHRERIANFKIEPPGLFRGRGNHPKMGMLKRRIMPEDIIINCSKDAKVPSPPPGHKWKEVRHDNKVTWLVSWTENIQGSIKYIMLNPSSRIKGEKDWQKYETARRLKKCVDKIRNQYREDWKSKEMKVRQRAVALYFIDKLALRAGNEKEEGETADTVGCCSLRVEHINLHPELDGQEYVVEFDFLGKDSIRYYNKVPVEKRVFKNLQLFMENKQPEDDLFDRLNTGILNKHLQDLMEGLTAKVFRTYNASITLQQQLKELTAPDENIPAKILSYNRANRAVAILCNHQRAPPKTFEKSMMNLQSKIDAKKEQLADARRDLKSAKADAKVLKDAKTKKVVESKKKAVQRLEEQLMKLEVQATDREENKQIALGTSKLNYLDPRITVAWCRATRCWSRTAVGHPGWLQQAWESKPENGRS
Description: The effect of the tested compounds on Topo I and II activities were evaluated by Topo I/II relaxation assays. The reaction products, relaxed DNA could be distinguished from supercoiled DNA by gel electrophoresis and visualized using gel imaging system. The activity of DNA topoisomerase I (TaKaRa, Kyoto, Japan) was determined by measuring the relaxation of supercoiled DNA pBR322 [32]. Camptothecin was used as a positive control. The reaction mixture was prepared according to the manufacture's protocol, and incubated at 37 °C for 30 min. The reactions were terminated by adding dye solution containing 1% SDS, 0.02% bromophenol blue and 50% glycerol. The mixtures were applied to 1% agarose gel and subjected to electrophoresis for 1 h, in 1× TAE buffer (40 mM Tris-acetate, 1 mM EDTA). Gels were stained for 30 min in 60 mL 1× TAE buffer with ethidium bromide (0.5 μg/mL). DNA bands were visualized by transillumination with UV light and then photographed by a Gel Doc XR+ System (BIO-RAD, Hercules, CA, USA).

[6] = system: HepG2 cells; design: method as in PMID 25537271; settings: earlier in vitro cytotoxic assay; read-out: IC50 against HepG2; cited from earlier work
[7] = system: SMMC-7721 cells; design: method as in PMID 25537271; settings: earlier in vitro cytotoxic assay; read-out: IC50 against SMMC-7721; cited from earlier work

T1 sequence (P11388 whole entry): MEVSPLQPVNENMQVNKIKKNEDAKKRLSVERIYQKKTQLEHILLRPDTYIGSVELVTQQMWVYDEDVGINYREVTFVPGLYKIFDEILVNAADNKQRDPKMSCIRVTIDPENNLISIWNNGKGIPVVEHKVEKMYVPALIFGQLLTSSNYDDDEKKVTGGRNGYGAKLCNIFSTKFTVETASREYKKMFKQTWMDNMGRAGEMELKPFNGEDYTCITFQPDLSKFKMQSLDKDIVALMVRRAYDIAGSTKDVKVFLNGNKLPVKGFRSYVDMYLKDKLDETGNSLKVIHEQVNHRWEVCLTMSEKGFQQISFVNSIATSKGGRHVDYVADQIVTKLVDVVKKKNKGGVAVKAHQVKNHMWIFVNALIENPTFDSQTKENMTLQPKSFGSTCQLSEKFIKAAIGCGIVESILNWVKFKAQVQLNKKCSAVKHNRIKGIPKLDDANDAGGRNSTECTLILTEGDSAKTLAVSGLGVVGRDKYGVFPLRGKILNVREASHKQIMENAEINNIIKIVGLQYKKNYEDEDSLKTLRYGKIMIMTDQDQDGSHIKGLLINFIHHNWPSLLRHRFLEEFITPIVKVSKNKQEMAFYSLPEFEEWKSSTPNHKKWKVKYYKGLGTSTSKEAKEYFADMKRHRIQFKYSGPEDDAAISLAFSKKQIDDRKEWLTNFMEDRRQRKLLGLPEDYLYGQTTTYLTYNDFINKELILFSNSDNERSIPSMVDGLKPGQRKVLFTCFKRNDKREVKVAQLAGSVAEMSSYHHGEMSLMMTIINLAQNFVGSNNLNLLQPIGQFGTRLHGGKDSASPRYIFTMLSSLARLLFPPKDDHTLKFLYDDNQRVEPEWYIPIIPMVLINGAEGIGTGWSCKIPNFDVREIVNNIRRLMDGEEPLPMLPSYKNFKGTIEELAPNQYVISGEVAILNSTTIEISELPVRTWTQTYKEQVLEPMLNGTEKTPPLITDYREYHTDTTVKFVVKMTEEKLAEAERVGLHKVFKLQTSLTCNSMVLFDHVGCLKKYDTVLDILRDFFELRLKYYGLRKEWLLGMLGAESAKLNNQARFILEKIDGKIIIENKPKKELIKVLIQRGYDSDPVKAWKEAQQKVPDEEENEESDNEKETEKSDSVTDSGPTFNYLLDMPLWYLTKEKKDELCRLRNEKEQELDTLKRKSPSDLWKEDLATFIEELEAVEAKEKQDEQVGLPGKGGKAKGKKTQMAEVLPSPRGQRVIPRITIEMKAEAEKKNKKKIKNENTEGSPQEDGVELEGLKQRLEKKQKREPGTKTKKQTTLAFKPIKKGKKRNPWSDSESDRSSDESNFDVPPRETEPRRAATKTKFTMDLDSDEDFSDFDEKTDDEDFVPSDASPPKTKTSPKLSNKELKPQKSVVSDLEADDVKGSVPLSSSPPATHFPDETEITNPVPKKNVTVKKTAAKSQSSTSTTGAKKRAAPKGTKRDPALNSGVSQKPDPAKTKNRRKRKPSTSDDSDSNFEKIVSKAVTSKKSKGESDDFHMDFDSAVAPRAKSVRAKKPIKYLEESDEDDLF

melting point [°C]	inhibition at 20 µM [2] [%]	inhibition at 100 µM [2] [%]	inhibition at 100 µM [5] [%]	inhibitory activity to Topo IIα ([2]; preliminary screening)	inhibition at 20 µM [5] [%]	inhibitory activity to Topo I ([5]; preliminary screening)	SMILES	IC50 ([1]; Homo sapiens, HepG2, 48 h) [µM]	IC50 [3] [µM]	IC50 ([4]; Homo sapiens, SMMC-7721, 48 h) [µM]	IC50 [6] [µM]	IC50 [7] [µM]	IC50 [1] [µM]	IC50 [4] [µM]
121 to 123	32.8	72.5	0	–	–	–	Cc1ccc2[nH]c3c(c2c1)C[C@@]1(C)C(CC[C@]2(C)C1CC=C1C4[C@@H](C)[C@H](C)CC[C@]4(C(=O)NCCCCN4CCCCC4)CC[C@]12C)C3(C)C (stereo partly shown) [6d, N-(4-(Piperidin-1-yl)butyl)-5′-methyl-1′H-ursa-2,12-dieno[3,2-b]indol-28-carboxamide]	2.31 ± 0.21	18.7 ± 1.36	2.72 ± 0.31	–	–	–	–
–	38.2	72.5	34.2	considerable inhibitory activity	9	considerable inhibitory activity	Cc1ccc2[nH]c3c(c2c1)C[C@@]1(C)C(CC[C@]2(C)C1CC=C1C4[C@@H](C)[C@H](C)CC[C@]4(C(=O)NCCCN(C)C)CC[C@]12C)C3(C)C (stereo partly shown) [5b, N-(3-(Dimethylamino)propyl)-5′-methyl-1′H-ursa-2,12-dieno[3,2-b]indol-28-carboxamide]	1.26 ± 0.17	20.7 ± 1.73	1.08 ± 0.22	~1	~1	–	–
301 to 303	9.7	23.8	0	–	–	–	Cc1ccc2[nH]c3c(c2c1)C[C@@]1(C)C(CC[C@]2(C)C1CC=C1C4[C@@H](C)[C@H](C)CC[C@]4(C(=O)NCCNC(=O)[C@]45CC[C@@H](C)[C@H](C)C4C4=CCC6[C@@]7(C)Cc8c([nH]c9ccc(C)cc89)C(C)(C)C7CC[C@@]6(C)[C@]4(C)CC5)CC[C@]12C)C3(C)C (stereo partly shown) [7a, N,N′-(ethane-1,2-diyl)-bis(5′-methyl-1′H-ursa-2,12-dieno[3,2-b]indol-28-carboxamide)]	> 50	> 50	> 50	–	–	–	–
255 to 258	8.1	16.9	0	–	–	–	Cc1ccc2[nH]c3c(c2c1)C[C@@]1(C)C(CC[C@]2(C)C1CC=C1C4[C@@H](C)[C@H](C)CC[C@]4(C(=O)NCCCCNC(=O)[C@]45CC[C@@H](C)[C@H](C)C4C4=CCC6[C@@]7(C)Cc8c([nH]c9ccc(C)cc89)C(C)(C)C7CC[C@@]6(C)[C@]4(C)CC5)CC[C@]12C)C3(C)C (stereo partly shown) [7c, N,N′-(butane-1,4-diyl)-bis(5′-methyl-1′H-ursa-2,12-dieno[3,2-b]indol-28-carboxamide)]	> 50	> 50	> 50	–	–	–	–
205 to 207	31.2	72.3	24.5	–	12.4	–	Cc1ccc2[nH]c3c(c2c1)C[C@@]1(C)C(CC[C@]2(C)C1CC=C1C4[C@@H](C)[C@H](C)CC[C@]4(C(=O)NCCCN)CC[C@]12C)C3(C)C (stereo partly shown) [5a, N-(3-Aminopropyl)-5′-methyl-1′H-ursa-2,12-dieno[3,2-b]indol-28-carboxamide]	2.45 ± 0.38	21.3 ± 1.59	2.02 ± 0.21	–	–	–	–
183 to 185	41.3	81.1	0	–	–	–	Cc1ccc2[nH]c3c(c2c1)C[C@@]1(C)C(CC[C@]2(C)C1CC=C1C4[C@@H](C)[C@H](C)CC[C@]4(C(=O)NCCCN4CCCCC4)CC[C@]12C)C3(C)C (stereo partly shown) [5d, N-(3-(Piperidin-1-yl)propyl)-5′-methyl-1′H-ursa-2,12-dieno[3,2-b]indol-28-carboxamide]	1.04 ± 0.09	12.8 ± 0.83	0.89 ± 0.11	–	–	–	–

Second part, the compound before the results:

SMILES	melting point [°C]	inhibition at 20 µM [2] [%]	inhibition at 100 µM [2] [%]	inhibition at 100 µM [5] [%]	inhibitory activity to Topo IIα ([2]; preliminary screening)	inhibition at 20 µM [5] [%]	inhibitory activity to Topo I ([5]; preliminary screening)	IC50 ([1]; Homo sapiens, HepG2, 48 h) [µM]	IC50 [3] [µM]	IC50 ([4]; Homo sapiens, SMMC-7721, 48 h) [µM]	IC50 [6] [µM]	IC50 [7] [µM]	IC50 [1] [µM]	IC50 [4] [µM]
Cc1ccc2[nH]c3c(c2c1)C[C@@]1(C)C(CC[C@]2(C)C1CC=C1C4[C@@H](C)[C@H](C)CC[C@]4(C(=O)NCCN(C)C)CC[C@]12C)C3(C)C (stereo partly shown) [4b, N-(2-(Dimethylamino)ethyl)-5′-methyl-1′H-ursa-2,12-dieno[3,2-b]indol-28-carboxamide]	166 to 168	36.9	68	3.7	–	–	–	4.11 ± 0.55	31.1 ± 2.63	4.42 ± 0.71	–	–	–	–
Cc1ccc2[nH]c3c(c2c1)C[C@@]1(C)C(CC[C@]2(C)C1CC=C1C4[C@@H](C)[C@H](C)CC[C@]4(C(=O)NCCN)CC[C@]12C)C3(C)C (stereo partly shown) [4a, N-(2-Aminoethyl)-5′-methyl-1′H-ursa-2,12-dieno[3,2-b]indol-28-carboxamide]	228 to 230	25.9	69.7	15.1	–	5.6	–	3.31 ± 0.35	29.6 ± 2.12	3.5 ± 0.61	–	–	–	–
Cc1ccc2[nH]c3c(c2c1)C[C@@]1(C)C(CC[C@]2(C)C1CC=C1C4[C@@H](C)[C@H](C)CC[C@]4(C(=O)NCCN4CCCCC4)CC[C@]12C)C3(C)C (stereo partly shown) [4d, N-(2-(Piperidin-1-yl)ethyl)-5′-methyl-1′H-ursa-2,12-dieno[3,2-b]indol-28-carboxamide]	195 to 197	32.7	71.7	13	–	0	–	~1	16 ± 1.07	~1	–	–	1.47 ± 0.12	1.75 ± 0.11
Cc1ccc2[nH]c3c(c2c1)C[C@@]1(C)C(CC[C@]2(C)C1CC=C1C4[C@@H](C)[C@H](C)CC[C@]4(C(=O)NCCN4CCOCC4)CC[C@]12C)C3(C)C (stereo partly shown) [4e, N-(2-Morpholinoethyl)-5′-methyl-1′H-ursa-2,12-dieno[3,2-b]indol-28-carboxamide]	104 to 105	26.8	63.3	0	–	–	–	10.7 ± 2.09	> 50	7.82 ± 0.78	–	–	–	–
